One assay deals with T1, intracellular PTP1B (Mus musculus, UniProt P35821).
T1 construct: endogenous in cells; host or cells: NIH3T3
Put plainly: PTPase activity of anti-PTP1B immunocomplexes from NIH3T3 cells. It counts as cell-based. The following applies: treated 5 minutes. The protocol:
NIH3T3 cells were untreated or treated with glucatime for 5 minutes. PTP1B protein was immunoprecipitated from the cells using an anti-PTP1B antibody. The amounts of PTP1B in the immunocomplexes were quantified by SDS-PAGE/Western blotting with the anti-PTP1B antibody (A). Activities of the immunocomplexes in dephosphorylating a synthetic phosphotyrosine peptide were determined by in vitro PTPase assays (B).

Assay [1] has as its target T2, PTP1B (GST fusion protein) (Homo sapiens, UniProt P18031).
T2 construct: purchased Upstate Biotechnology Inc. (UBI, Lake Placid, N.Y.)
Description: In vitro PTPase assay, dephosphorylation of a synthetic phosphotyrosine peptide. Format: biochemical. As to the method:
(§1) In vitro PTPase activities were measured using the commercial protein tyrosine phosphatase assay kit (UBI) following established procedure. […] 100 μl of Malachite Green solution was added and incubated for 5 minutes, and the absorbance at 660 nm was measured after 5 minutes.

The test system of assay [2] is human cancer cell lines (A549, DR, HEY, MDA231, SK-N-SH, WM9). Description: Growth of human cancer cell lines with glucatime and/or IFNα (MTT, 6 days). It counts as cell-based. As to the method: Growth of human cancer cell lines cultured in the absence or presence of glucatime and/or IFNα (500 U/ml) for 6 days were determined by MTT assays. These cell lines were of different human malignancies, including lung cancer (A549), lymphoma (DR), ovarian cancer (HEY), breast cancer (MDA231, or MDA), neuroblastoma (SK-N-SH, or SK) and melanoma (WM9).

A further assay addresses T3, recombinant PRL-3 (Homo sapiens, UniProt O75365).
T3 construct: made in house; host or cells: E. coli DH5α
Description: In vitro PTPase assay with recombinant PRL (peptide or DiFMUP substrate). The following applies: peptide substrate. It counts as biochemical. The protocol: as §1
(§2) Recombinant GST fusion proteins of human PRL-1, 2 and 3 phosphatases were purified with glutathione beads from DH5α bacteria transformed by pGEX vectors containing cDNA fragments encoding the human PRLs which were generated by RT-PCR from H9 cells and confirmed by sequence analysis. Activities of the purified recombinant PRL proteins in dephosphorylating DiFMUP in the absence or presence of various inhibitors were measured following established procedure.
(§3) To assess whether sodium stibogluconate is an inhibitor of oncogenic PRL phosphatases, its effects on the PTPase activity of recombinant PRLs were evaluated by in vitro PTPase assays.

A further assay concerns the target T4, recombinant PRL-1 (Homo sapiens, UniProt Q93096).
T4 construct: made in house; host or cells: E. coli DH5α
Description: In vitro PTPase assay with recombinant PRL. The following applies: peptide substrate. Format: biochemical. The protocol:
as §1, §2, §3

A further assay has as its target T5, recombinant PRL-2 (Homo sapiens, UniProt Q12974).
T5 construct: made in house; host or cells: E. coli DH5α
T5 sequence (Q12974 1-167): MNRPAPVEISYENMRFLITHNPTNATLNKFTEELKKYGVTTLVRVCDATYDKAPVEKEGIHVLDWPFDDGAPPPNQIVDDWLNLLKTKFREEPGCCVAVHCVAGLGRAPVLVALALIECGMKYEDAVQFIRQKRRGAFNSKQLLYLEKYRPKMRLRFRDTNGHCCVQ
Description: In vitro PTPase assay with recombinant PRL. Format: biochemical. As to the method: as §1, §2, §3

A further assay addresses T6, GST/SHP-1 fusion protein (Mus musculus, UniProt P29351).
T6 construct: made in house
Put plainly: Reversibility of SHP-1 inhibition (washing of bead-bound GST/SHP-1). It counts as biochemical. The following applies: preincubated with inhibitor, then washed. An excerpt:
The beads were then washed 3 times in Tris buffer or without washing prior to in vitro PTPase assays.

Another assay has as its target T7, intracellular Flag-PRL-1 (Homo sapiens, UniProt Q93096).
T7 construct: expressed in transfected cells; host or cells: NIH3T3
Put plainly: PTPase activity of anti-Flag immunocomplexes from NIH3T3 transfectants. It counts as cell-based. The following applies: treated 5 min. As to the method:
(§4) An expression construct of Flag-tagged PRL-1 or control vector was transfected into NIH3T3 cells which were then treated without or with sodium stibogluconate and used for immunoprecipitation assays with a monoclonal anti-Flag antibody. The immunocomplexes were analyzed by SDS-PAGE/Western blotting and PTPase assays. A Flag-tagged protein with a molecular weight approximately 22 kDa as expected for Flag-PRL-1 was detected in the immunocomplexes from untreated or sodium stibogluconate -treated Flag-PRL-1 transfectants but not in those from the control cells (FIG. 6A).
(§5) Glucatime inactivates intracellular PRL phosphatases. NIH3T3 stable transfectants of Flag-tagged PRL-1 (A), PRL-2 (B) and PRL-3 (C) were untreated or treated with glucatime for 5 minutes and then washed to remove cell free drug. The Flag-tagged PRLs were immunoprecipitated from the cells using a monoclonal anti-Flag antibody. The amounts of Flag-tagged PRLs in the immunocomplexes were quantified by SDS-PAGE/Western blotting with the anti-Flag antibody (the top panel). Activities of the immunocomplexes in dephosphorylating a synthetic phosphotyrosine peptide were determined by in vitro PTPase assays (the low panel).

A further assay has as its target T8, intracellular Flag-PRL-3 (Homo sapiens, UniProt O75365).
T8 construct: expressed in transfected cells; host or cells: NIH3T3
Described as above. Format: cell-based. The following applies: treated 5 min. As to the method:
as §4, §5

The target in the next assay is T9, intracellular Flag-PRL-2 (Homo sapiens, UniProt Q12974).
T9 construct: expressed in transfected cells; host or cells: NIH3T3
T9 sequence (Q12974 1-167): T5 sequence (Q12974 1-167)
The description is as above. It counts as cell-based. The protocol:
as §4
Flag-PRL-2 transfectants were briefly treated with sodium stibogluconate for 5 minutes, washed to remove cell-free drug and then incubated for various times prior to termination by cell lysis. Anti-Flag immunocomplexes from the cells were analyzed by SDS-PAGE/Western blotting and PTPase assays. The amounts of Flag-PRL-2 proteins in the immunocomplexes were at similar levels as quantified by probing with an anti-Flag antibody. […] PTPase activity of the immunocomplexes from cells incubated for 24 hours was 78% of the untreated cells.
Glucatime-induced inactivation of intracellular PRL-2 lasts more than 24 hours. NIH3T3 stable transfectant of Flag-tagged PRL-2 was treated with glucatime for 5 minutes, washed to remove cell free drug and then incubated for various times prior to termination by lysing the cells in lysis buffer. Flag-tagged PRL-2 was immunoprecipitated from the cell lysates using a monoclonal anti-Flag antibody. The amounts of Flag-tagged PRL-2 in the immunocomplexes were quantified by SDS-PAGE/Western blotting with the anti-Flag antibody (A). Activities of the immunocomplexes in dephosphorylating a synthetic phosphotyrosine peptide were determined by in vitro PTPase assays (B).

The text below walks through data of patent publication US7744867B2, “PTPase inhibitors and method of using same” (The Cleveland Clinic Foundation, priority 2001, dated 2010).

T3 sequence (O75365 whole entry): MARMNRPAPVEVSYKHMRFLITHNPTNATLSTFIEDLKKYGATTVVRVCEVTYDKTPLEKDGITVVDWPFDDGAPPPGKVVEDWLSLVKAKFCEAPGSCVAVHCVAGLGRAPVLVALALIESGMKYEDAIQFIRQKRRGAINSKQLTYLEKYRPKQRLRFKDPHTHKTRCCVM
T8 sequence (O75365 whole entry): as above
T7 sequence (Q93096 whole entry): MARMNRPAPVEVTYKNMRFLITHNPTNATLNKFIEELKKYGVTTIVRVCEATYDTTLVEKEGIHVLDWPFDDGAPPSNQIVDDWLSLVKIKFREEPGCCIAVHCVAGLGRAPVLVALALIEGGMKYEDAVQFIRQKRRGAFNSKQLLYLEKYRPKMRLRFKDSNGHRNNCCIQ
T4 sequence (Q93096 whole entry): as above
T6 sequence (P29351 whole entry, the tested form may be a part): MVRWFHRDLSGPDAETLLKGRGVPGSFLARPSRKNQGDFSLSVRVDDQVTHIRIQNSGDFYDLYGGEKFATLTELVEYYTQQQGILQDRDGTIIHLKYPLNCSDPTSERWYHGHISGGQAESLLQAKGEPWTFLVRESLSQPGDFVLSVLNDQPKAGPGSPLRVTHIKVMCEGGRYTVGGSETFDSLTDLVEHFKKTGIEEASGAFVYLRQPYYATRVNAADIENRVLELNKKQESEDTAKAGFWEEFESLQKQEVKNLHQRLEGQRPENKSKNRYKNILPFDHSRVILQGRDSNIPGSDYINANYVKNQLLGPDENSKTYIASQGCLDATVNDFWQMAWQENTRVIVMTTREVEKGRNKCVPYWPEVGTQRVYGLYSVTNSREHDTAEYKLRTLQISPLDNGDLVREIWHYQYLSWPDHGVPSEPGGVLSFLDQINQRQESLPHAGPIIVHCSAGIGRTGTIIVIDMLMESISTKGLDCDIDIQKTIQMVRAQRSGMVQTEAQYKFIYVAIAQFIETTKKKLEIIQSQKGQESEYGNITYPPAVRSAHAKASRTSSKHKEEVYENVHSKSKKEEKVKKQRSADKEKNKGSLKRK
T2 sequence (P18031 whole entry, species assumed, the tested form may be a part): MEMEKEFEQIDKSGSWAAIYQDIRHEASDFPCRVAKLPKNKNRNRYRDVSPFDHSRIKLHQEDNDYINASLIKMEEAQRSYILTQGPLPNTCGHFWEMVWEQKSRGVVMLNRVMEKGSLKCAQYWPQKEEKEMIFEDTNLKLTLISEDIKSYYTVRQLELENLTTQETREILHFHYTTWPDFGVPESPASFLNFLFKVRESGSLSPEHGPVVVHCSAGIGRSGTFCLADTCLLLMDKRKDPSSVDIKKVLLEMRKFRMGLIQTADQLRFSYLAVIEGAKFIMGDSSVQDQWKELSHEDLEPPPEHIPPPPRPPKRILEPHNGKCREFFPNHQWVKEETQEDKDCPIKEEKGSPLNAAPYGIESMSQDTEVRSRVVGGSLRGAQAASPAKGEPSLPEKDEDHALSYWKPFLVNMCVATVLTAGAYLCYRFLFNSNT
T1 sequence (P35821 whole entry): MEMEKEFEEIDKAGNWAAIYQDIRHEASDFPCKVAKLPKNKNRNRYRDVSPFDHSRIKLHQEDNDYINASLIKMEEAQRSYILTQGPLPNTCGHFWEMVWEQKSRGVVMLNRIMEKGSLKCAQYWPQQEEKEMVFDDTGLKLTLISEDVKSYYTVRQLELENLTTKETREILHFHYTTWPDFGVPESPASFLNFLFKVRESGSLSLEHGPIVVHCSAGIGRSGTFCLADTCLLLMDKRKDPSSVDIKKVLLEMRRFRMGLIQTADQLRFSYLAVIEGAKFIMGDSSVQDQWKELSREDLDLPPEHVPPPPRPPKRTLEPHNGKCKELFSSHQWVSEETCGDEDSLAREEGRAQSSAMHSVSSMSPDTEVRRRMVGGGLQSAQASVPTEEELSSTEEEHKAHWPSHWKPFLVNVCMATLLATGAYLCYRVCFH

In the case of `CNC[C@H](O)[C@@H](O)[C@H](O)[C@H](O)CO.[O]=[Sb]([OH])([OH])[OH]` [glucatime, meglumine antimonate], the “inhibition of intracellular PTP1B” value on intracellular PTP1B is listed as “partial inhibition”. For the same molecule, in assay [1], the “effect against recombinant PTP1B in vitro” value is “partial inhibitory effect”. In addition, the “IFNα-induced growth inhibition in presence of glucatime” value in [2] (IFNα 500 U/ml) is “augments”. The “growth of human cancer cell lines in culture” value in assay [2] (MTT) is “inhibits the growth”. The “inhibition of recombinant PRL-3” value at recombinant PRL-3 is on record as “potent inhibitor”. For the same molecule, on recombinant PRL-1, the “inhibition of recombinant PRL-1” value was “potent inhibitor”. Further, at recombinant PRL-2 (peptide substrate), the “inhibition of recombinant PRL-2” value is listed as “potent inhibitor”. Moreover, the “reversibility of PRL-2 inactivation” value at recombinant PRL-2 (washing process / stable complex) is given as “irreversible”. In addition, the “reversibility of SHP-1 inhibition” value on GST/SHP-1 fusion protein is recorded as “irreversible”. Also, the “PTPase activity of Flag-PRL-1 immunocomplexes from treated transfectants” value on intracellular Flag-PRL-1 was “inactivates”. Further, the “PTPase activity of Flag-PRL-3 immunocomplexes from treated transfectants” value on intracellular Flag-PRL-3 was “inactivates”. Besides, the “PTPase activity of Flag-PRL-2 immunocomplexes from treated transfectants” value on intracellular Flag-PRL-2 (treated 5 min) is “inactivates”. Further, the “duration of intracellular PRL-2 inactivation” value on intracellular Flag-PRL-2 (treated 5 minutes, washed to remove cell free drug) is “more than 24 hours”.
